Earlier results as cited in patent US11439638B1, “Drug and diagnostic combination system to identify and treat single-stranded RNA viruses including coronaviruses” (priority 2021, dated 2022).

How the values were obtained:
[1] = system: influenza viruses, arenaviruses, bunyaviruses, and filoviruses
SARS-CoV-2 = conditions: mammalian cells, in vitro

NC(=O)c1nc(F)c[nH]c1=O [Favipiravir, favipiravir]
effectiveness against viruses [1]: effective

NC(=O)c1nc(F)cn([C@@H]2O[C@H](COP(=O)(O)OP(=O)(O)OP(=O)(O)O)[C@@H](O)[C@H]2O)c1=O [favipiravir-RTP]
effectiveness against viruses [1]: effective

ivermectin
inhibition of yellow fever virus (yellow fever virus): inhibit | inhibition of dengue virus (dengue virus): inhibit | replication of SARS-CoV-2 (SARS-CoV-2): slow replication
